Laboratory results as given in PMC4573853 (Genes & Development, 2015).
No end group written: not given here.

Legend:
[1] = test system: taf14Δ strain (BY4741 background); assay: Spotting assay on 6-azauracil medium; assay type: cell-based, S. cerevisiae; conditions: Fig. 4F
[2] = test system: taf14Δ cells; conditions: ref Zhang et al. 2004; cited from earlier work
[3] = test system: taf14Δ cells; assay: Spotting assay, sensitivity to DNA-damaging agents; assay type: cell-based, S. cerevisiae; conditions: Supplemental Fig. S3D
[4] = molecular target: T1, Taf14 YEATS (residues 1–132) (Saccharomyces cerevisiae, UniProt P35189); assay: NMR chemical shift perturbation; assay type: binding, S. cerevisiae; conditions: for amide resonance changes / interaction: 15N-labeled Taf14 YEATS (1–132), peptide titration
T1 sequence (P35189 1-132): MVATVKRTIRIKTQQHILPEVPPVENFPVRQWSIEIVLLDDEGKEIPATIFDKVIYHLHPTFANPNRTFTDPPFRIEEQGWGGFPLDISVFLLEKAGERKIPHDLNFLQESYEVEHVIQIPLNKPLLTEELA

[5] = test system: Yaf9 YEATS domain; conditions: capacity to bind in vitro; ref Li et al. 2014; cited from earlier work
[6] = 1H,15N HSQC, Supplemental Fig. S2A

O=c1cn[nH]c(=O)[nH]1 [6-AU, 6-azauracil]
rescue of 6-AU growth by taf14W81A ([1]; taf14Δ expressing taf14W81A): unable to rescue
rescue of 6-AU sickness by exogenous TAF14 ([1]; taf14Δ expressing wild-type TAF14): could rescue

NC(=O)NO [HU, hydroxyurea]
sensitivity of taf14Δ cells [2]: sensitive
sensitivity of taf14Δ strain [3]: sensitivity

COS(C)(=O)=O [MMS, methane methylsulfonate]
sensitivity of taf14Δ cells [2]: sensitive
effect of Taf14 YEATS disruption on response to agent ([3]; taf14Δ expressing taf14W81A): significantly impaired the response

CC(=O)NCCCC[C@H](N)C(=O)O [acetylated lysine]
amide resonance changes / interaction ([4]; 1H,15N HSQC): CSPs primarily in an acetyllysine-binding pocket

H3K9ac1–12: H3K9ac1–12 peptide
amide resonance changes / interaction ([4]; 1H,15N HSQC): strong interaction

H3K9ac5–13: H3K9ac5–13 peptide (Ac-QTARK(Ac)STGG)
binding relative to H3K9ac1–12 [4, 6]: slightly decreased
resonance perturbation pattern relative to H3K9ac1–12 [4, 6]: nearly identical resonance perturbation pattern

H3K27ac21–31: H3K27ac21–31 peptide (ATKAARK(Ac)SAPA)
CSP magnitude relative to H3K9ac ([4]; 1H,15N HSQC, Supplemental Fig. S2B): smaller in magnitude
binding relative to H3K9ac ([4]; inferred from CSP magnitude, Supplemental Fig. S2B): weaker

H3K27ac: H3 peptide acetylated at Lys27 (ATKAARK(Ac)SAPA)
preference of Yaf9 YEATS domain [5]: capacity to bind

phleomycin
sensitivity of taf14Δ strain [3]: sensitivity
